Reference: patent publication US20090221581A1, “Methods of treating pain” (priority 2005, published 2009)

Tested on: SNI mice
Test: Spared nerve injury (SNI) model of chronic neuropathic pain, von Frey assay
Format: in vivo
Text: As outlined above, the spared nerve injury (SNI) model (see FIG. 1) involves a lesion of two of the three terminal branches of the sciatic nerve (tibial and common peroneal nerves) of experimental animals, leaving the sural nerve intact. SNI results in mechanical and thermal allodynia in the non-injured sural nerve skin territory (Decosterd & Woolf, Pain 2000; 87:149-158; Tsujino et al., Mol. Cel. Neurosci. 2000; 15:170-182).
Wildtype mice (strain C3HeB/FeJ) (age, sex and weight matched) were anesthetized with Hypnorm (0.315 mg/ml fentanyl citrate+10 mg/ml fluanisone; Janssen)/Hypnovel (5 mg/ml midazolam; Roche Applied Sciences)/water at a ratio of 1:1:2 at 4 μl/g prior to surgical preparation.
Subsequently, an incision was made under aseptic precautions in the ipsi-lateral right hind leg of all mice just above the level of the knee, exposing the three terminal branches of the sciatic nerve: the common peroneal, tibial, and sural nerves. The common peroneal and tibial nerves were ligated tightly with 7/0 silk and sectioned distal to the ligation removing ≈2 mm of distal nerve stump. The sural branch remained untouched during the procedure (denoted herein “SNI ipsi”). The overlying muscle and skin was sutured, and the animals were allowed to recover and to permit wound healing. In the same mice, the sciatic nerve branches of the contra-lateral left hind leg were exposed but not lesioned (denoted herein “SNI contra-lateral”). Mice that underwent spared nerve injury are hereinafter denoted “SNI mice”.
After recovery from surgery and wound healing, SNI mice received intraperitoneal (i.p.) injections of CDK-inhibiting compounds. In particular, compound A and B as disclosed herein, belonging to the class of 4,6-disubstituted aminopyrimidine derivatives as described in WO2005/026129 were administered. […]
Injection of inhibitor or vehicle, and subsequent measurements of paw withdrawal threshold upon mechanical stimulation in von Frey assays were performed at day 0, day 7, day 21 and day 28 post SNI. Reflex nociceptive responses to mechanical stimulation were measured in a von Frey assay 30 min after each injection. An additional von Frey measurement was performed at day 14, but without prior injection of compound or vehicle.
Mice which underwent SNI and subsequent administration of the CDK-inhibiting compounds of the present invention were tested for signs of mechanical allodynia post nerve injury and post administration in a von Frey assay (Decosterd and Woolf, Pain 2000; 87:149-158). This assay determines the mechanical threshold upon which a stimulus, which normally is not painful, is recognized by an animal as uncomfortable or painful. SNI ipsi and SNI contra baselines, respectively, were established.
Mechanical thresholds of SNI mice were quantified using the up-down method based on Chaplan et al. (1994) and Malmberg and Basbaum (1998):
Mice were placed in plexiglass cylinders of about 9.5 cm in diameter, 14 cm high with four vent holes towards the top and a Plexiglas lid. The cylinders were placed on an elevated mesh surface (7×7 mm squares). Prior to the day of testing, the mice were adapted to the testing cylinders for 1-2 hours. On the day of testing the mice were adapted to the cylinders for about an hour, wherein the adaptation time depends on factors such as the strain of the mouse and the number of times they have been tested previously. In general, testing may begin once the mice are calm and stop exploring the new environment.
For testing mice, filaments 2.44, 2.83, 3.22, 3.61, 3.84, 4.08, and 4.31 (force range=0.04 to 2.0 g) were used. The […] filament was applied first. Said filament was gently applied to the plantar surface of one paw, allowed to bend, and held in position for 2-4 seconds. Whenever a positive response to the stimulus (flexion reaction) occurred, the next weaker von Frey filament was applied; whenever a negative response (no reaction) occurred, the next stronger force was applied. […]

COc1ccccc1-c1cc(Nc2cccc(S(N)(=O)=O)c2)ncn1 [Compound A]
effect on von Frey mechanical threshold (30 mg/kg at midnight and 8.00 a.m., measured 8.30 a.m., day 28 post SNI): significant increases in thresholds | effect on SNI-induced allodynia (von Frey) (30 mg/kg i.p. 30 minutes before von Frey testing): hypoalgesic effect | effect on von Frey mechanical threshold (30 mg/kg i.p. 30 minutes prior to measurements, day 21 post SNI): significant increase of threshold values | effect on von Frey mechanical threshold (30 mg/kg i.p., day 7 post SNI): does not show any effect | average von Frey threshold value, contra-lateral paw (30 mg/kg i.p., day 21 and 28): ~0.4 g | average von Frey threshold value, ipsi-lateral paw (30 mg/kg i.p., day 21 and 28): ~0.3 g
